Data published in patent publication US20240383856A1 (Zedira GmbH, priority 2021, published 2024).

Experiments:
[1] = biological target: T1, recombinant human transglutaminase 2 (Homo sapiens, UniProt P21980); test: Transglutaminase assay (DCC-assay): incorporation of dansylcadaverine into dimethylcasein; format: biochemical; conditions: recombinant human TG2 10 nM; dansylcadaverine incorporation into dimethylcasein; read-out: IC50 TG2
T1 construct: purchased Zedira T022
T1 sequence (P21980 1-687): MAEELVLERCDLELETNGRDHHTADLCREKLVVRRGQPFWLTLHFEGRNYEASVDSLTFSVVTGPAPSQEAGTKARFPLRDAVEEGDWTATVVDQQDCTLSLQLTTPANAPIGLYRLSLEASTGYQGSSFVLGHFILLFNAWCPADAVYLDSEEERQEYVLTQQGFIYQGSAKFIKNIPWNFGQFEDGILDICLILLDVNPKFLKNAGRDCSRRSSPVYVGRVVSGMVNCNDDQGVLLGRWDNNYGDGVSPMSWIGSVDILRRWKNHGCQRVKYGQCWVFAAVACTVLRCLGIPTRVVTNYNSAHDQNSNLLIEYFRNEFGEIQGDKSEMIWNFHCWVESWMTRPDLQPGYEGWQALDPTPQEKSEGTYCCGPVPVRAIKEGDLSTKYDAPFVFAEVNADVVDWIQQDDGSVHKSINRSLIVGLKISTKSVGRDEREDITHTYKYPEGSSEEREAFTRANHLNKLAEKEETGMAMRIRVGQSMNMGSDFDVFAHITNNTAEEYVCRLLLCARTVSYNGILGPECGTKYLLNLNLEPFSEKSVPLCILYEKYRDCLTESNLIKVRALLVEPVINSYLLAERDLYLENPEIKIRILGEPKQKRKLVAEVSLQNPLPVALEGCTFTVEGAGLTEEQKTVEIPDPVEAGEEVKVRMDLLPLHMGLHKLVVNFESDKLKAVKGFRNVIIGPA
In short: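 IC50 is the inhibitor level that blocks 50% of initial activity. Activity is the fluorescence slope (λex 330, λem 500 nm) between 20 and 30 min of a 37 °C run, relative to a 2% DMSO control. The enzyme is recombinant human tissue transglutaminase, 10 nM final, tested against a 1:2 inhibitor dilution series in a pH 8.0 mix with 10 mM CaCl2, 10 mM glutathione, 16.7 µM dansylcadaverine and 4 µM N,N-dimethylcasein.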

[2] = logD by shake flask method (octanol / PBS pH 7.4, HPLC); format: physicochemical; conditions: octanol / PBS pH 7.4, shake flask
In short: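 LogD obtained by HPLC measurement of how the compound distributes between PBS (pH 7.4) and octanol in a shake-flask experiment.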

[3] = Caco-2 permeability assay (CacoReady kit); format: in vitro ADME; conditions: human, Caco-2, Caco-2 barrier, CacoReady kit; above 1×10^−6 cm/s classified as permeable
In short: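 Compounds are tested on pre-formed Caco-2 barriers supplied as a ready-to-use kit, following the kit protocol, and the Papp value is derived to estimate intestinal absorption.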

| SMILES | IC50 [1] | logD [2] | Papp [3] |
| --- | --- | --- | --- |
| CNC(=O)C(=O)CC[C@H](NC(=O)c1nc(C2(C)CC2)no1)C(=O)Nc1cccn(CC(=O)NC2C3CC4CC2CC(C(N)=O)(C4)C3)c1=O (stereo partly drawn) [II-196, (S)-N1-(1-(2-(4-aminoadamantane-1-carboxamide)-2-oxoethyl)-2-oxo-1,2-dihydropyridin-3-yl)-N6-methyl-2-(3-(1-methylcyclopropyl)-1,2,4-oxadiazole-5-carboxamido)-5-oxohexanediamide] | 400 to 2500 nM | < 1 | < 1 ×10⁻⁶ cm/s |
| CNC(=O)C(=O)CC[C@H](NC(=O)c1noc(C)n1)C(=O)Nc1cccn(CC(=O)NC23CC(C2)C3)c1=O [II-197, (S)-N1-(1-(2-(bicyclo[1.1.1]pentan-1-ylamino)-2-oxoethyl)-2-oxo-1,2-dihydropyridin-3-yl)-N6-methyl-2-(5-methyl-1,2,4-oxadiazole-3-carboxamido)-5-oxohexanediamide] | 400 to 2500 nM | < 1 | < 1 ×10⁻⁶ cm/s |
| CNC(=O)C(=O)CC[C@H](NC(=O)c1snnc1CO)C(=O)Nc1cccn(CC(=O)NC2C3CC4CC(C3)CC2C4)c1=O (stereo partly drawn) [II-206, (S)-2-(4-(hydroxymethyl)-1,2,3-thiadiazole-5-carboxamido)-N1-(1-(2-(2-adamantylamino)-2-oxoethyl)-2-oxo-1,2-dihydropyridin-3-yl)-N6-methyl-5-oxohexanediamide] | 40 to 400 nM | < 1 | < 1 ×10⁻⁶ cm/s |
| CNC(=O)C(=O)CC[C@H](NC(=O)c1cncn1C)C(=O)Nc1cccn(CC(=O)NC23CC4CC(CC(C4)C2)C3)c1=O [II-207, (S)-N1-(1-(2-(1-adamantylamino)-2-oxoethyl)-2-oxo-1,2-dihydropyridin-3-yl)-N6-methyl-2-(1-methyl-1H-imidazole-5-carboxamido)-5-oxohexanediamide] | 40 to 400 nM | < 1 | < 1 ×10⁻⁶ cm/s |
| CNC(=O)C(=O)CC[C@H](NC(=O)c1nccn1C)C(=O)Nc1cccn(CC(=O)NC[C@@H]2CC[C@H]3C[C@@H]2C3(C)C)c1=O [II-208, (S)-N1-(1-(2-(((1S,2R,5S)-6,6-dimethylbicyclo[3.1.1]heptan-2-yl)methylamino)-2-oxoethyl)-2-oxo-1,2-dihydropyridin-3-yl)-N6-methyl-2-(1-methyl-1H-imidazole-2-carboxamido)-5-oxohexanediamide] | 400 to 2500 nM | 1 to 3 | < 1 ×10⁻⁶ cm/s |
| CNC(=O)C(=O)CC[C@H](NC(=O)c1c[nH]cn1)C(=O)Nc1cccn(CC(=O)NC[C@@H]2CC[C@@H]3C[C@H]2C3(C)C)c1=O [II-209, (S)-N1-(1-(2-(((1R,2R,5R)-6,6-dimethylbicyclo[3.1.1]heptan-2-yl)methylamino)-2-oxoethyl)-2-oxo-1,2-dihydropyridin-3-yl)-2-(1H-imidazole-4-carboxamido)-N6-methyl-5-oxohexanediamide] | 400 to 2500 nM | 1 to 3 | < 1 ×10⁻⁶ cm/s |
| CNC(=O)C(=O)CC[C@H](NC(=O)c1cncn1C)C(=O)Nc1cccn(CC(=O)NC23CC4CC(C)(CC(C)(C4)C2)C3)c1=O [II-210, (S)-N1-(1-(2-(3,5-dimethyladamantane-1-amino)-2-oxoethyl)-2-oxo-1,2-dihydropyridin-3-yl)-N6-methyl-2-(1-methyl-1H-imidazole-5-carboxamido)-5-oxohexanediamide] | 40 to 400 nM | 1 to 3 | < 1 ×10⁻⁶ cm/s |
| CNC(=O)C(=O)CC[C@H](NC(=O)c1cncn1C)C(=O)Nc1cccn(CC(=O)NC23CC4(C)CC(C)(CC(C)(C4)C2)C3)c1=O [II-211, (S)-N1-(1-(2-(3,5,7-trimethyl-1-adamantylamino)-2-oxoethyl)-2-oxo-1,2-dihydropyridin-3-yl)-N6-methyl-2-(1-methyl-1H-imidazole-5-carboxamido)-5-oxohexanediamide] | 40 to 400 nM | 1 to 3 | < 1 ×10⁻⁶ cm/s |

Continued, values first:

| IC50 [1] | logD [2] | Papp [3] | SMILES |
| --- | --- | --- | --- |
| 40 to 400 nM | < 1 | < 1 ×10⁻⁶ cm/s | CNC(=O)C(=O)CC[C@H](NC(=O)c1csnn1)C(=O)Nc1cccn(CC(=O)NC23CC(C2)C3)c1=O [II-198, (S)-N1-(1-(2-(bicyclo[1.1.1]pentan-1-ylamino)-2-oxoethyl)-2-oxo-1,2-dihydropyridin-3-yl)-N6-methyl-5-oxo-2-(1,2,3-thiadiazole-4-carboxamido)hexanediamide] |
| 40 to 400 nM | < 1 | < 1 ×10⁻⁶ cm/s | CNC(=O)C(=O)CC[C@H](NC(=O)c1ncns1)C(=O)Nc1cccn(CC(=O)NC23CC(C2)C3)c1=O [II-199, (S)-N1-(1-(2-(bicyclo[1.1.1]pentan-1-ylamino)-2-oxoethyl)-2-oxo-1,2-dihydropyridin-3-yl)-N6-methyl-5-oxo-2-(1,2,4-thiadiazole-5-carboxamido)hexanediamide] |
| 40 to 400 nM | < 1 | < 1 ×10⁻⁶ cm/s | CNC(=O)C(=O)CC[C@H](NC(=O)c1nncs1)C(=O)Nc1cccn(CC(=O)NC23CC(C2)C3)c1=O [II-200, (S)-N1-(1-(2-(bicyclo[1.1.1]pentan-1-ylamino)-2-oxoethyl)-2-oxo-1,2-dihydropyridin-3-yl)-N6-methyl-5-oxo-2-(1,3,4-thiadiazole-2-carboxamido)hexanediamide] |
| 40 to 400 nM | < 1 | < 1 ×10⁻⁶ cm/s | CNC(=O)C(=O)CC[C@H](NC(=O)c1snnc1C1CC1)C(=O)Nc1cccn(CC(=O)NC23CC(C2)C3)c1=O [II-201, (S)-N1-(1-(2-(bicyclo[1.1.1]pentan-1-ylamino)-2-oxoethyl)-2-oxo-1,2-dihydropyridin-3-yl)-2-(4-cyclopropyl-1,2,3-thiadiazole-5-carboxamido)-N6-methyl-5-oxohexanediamide] |
| 40 to 400 nM | < 1 | < 1 ×10⁻⁶ cm/s | CNC(=O)C(=O)CC[C@H](NC(=O)c1snnc1C1CC1)C(=O)Nc1cccn(CC(=O)NC2C3CC4CC(C3)CC2C4)c1=O (stereo partly drawn) [II-202, (S)-2-(4-cyclopropyl-1,2,3-thiadiazole-5-carboxamido)-N1-(1-(2-(2-adamantylamino)-2-oxoethyl)-2-oxo-1,2-dihydropyridin-3-yl)-N6-methyl-5-oxohexanediamide] |
| 40 to 400 nM | 1 to 3 | < 1 ×10⁻⁶ cm/s | CNC(=O)C(=O)CC[C@H](NC(=O)c1snnc1C(C)C)C(=O)Nc1cccn(CC(=O)NC2C3CC4CC(C3)CC2C4)c1=O (stereo partly drawn) [II-203, (S)-2-(4-isopropyl-1,2,3-thiadiazole-5-carboxamido)-N1-(1-(2-(2-adamantylamino)-2-oxoethyl)-2-oxo-1,2-dihydropyridin-3-yl)-N6-methyl-5-oxohexanediamide] |
| 40 to 400 nM | 1 to 3 | < 1 ×10⁻⁶ cm/s | CCc1nnsc1C(=O)N[C@@H](CCC(=O)C(=O)NC)C(=O)Nc1cccn(CC(=O)NC2C3CC4CC(C3)CC2C4)c1=O (stereo partly drawn) [II-204, (S)-2-(4-ethyl-1,2,3-thiadiazole-5-carboxamido)-N1-(1-(2-(2-adamantylamino)-2-oxoethyl)-2-oxo-1,2-dihydropyridin-3-yl)-N6-methyl-5-oxohexanediamide] |
| 40 to 400 nM | < 1 | < 1 ×10⁻⁶ cm/s | CNC(=O)C(=O)CC[C@H](NC(=O)c1snnc1C=O)C(=O)Nc1cccn(CC(=O)NC2C3CC4CC(C3)CC2C4)c1=O (stereo partly drawn) [II-205, (S)-2-(4-formyl-1,2,3-thiadiazole-5-carboxamido)-N1-(1-(2-(2-adamantylamino)-2-oxoethyl)-2-oxo-1,2-dihydropyridin-3-yl)-N6-methyl-5-oxohexanediamide] |
